Results as given in patent US9382306B2, “Octapeptide compounds derived from somatostatin and the therapeutic use thereof” (IPSEN PHARMA S.A.S., priority 2008, dated 2016).
Where “and” joins values, the source holds several entries; their conditions need not be identical. Equal values may be shown once. Bridge positions count the residues as written; N and C are the ends. Square brackets hold non-standard residues; d marks the D form. Peptide text beside a SMILES is read from it. ξ: configuration not given here. dPhe(4-NO2) = N[C@H](Cc1ccc([N+](=O)[O-])cc1)C(=O)O; dPhe(3,5-F2) = N[C@H](Cc1cc(F)cc(F)c1)C(=O)O; dPhe(3-Br) = N[C@H](Cc1cccc(Br)c1)C(=O)O; dPhe(4-Br) = N[C@H](Cc1ccc(Br)cc1)C(=O)O; dPhe(3-F) = N[C@H](Cc1cccc(F)c1)C(=O)O; d2Nal = N[C@H](Cc1ccc2ccccc2c1)C(=O)O; dPhe(2-F) = N[C@H](Cc1ccccc1F)C(=O)O; d(hPhe) = N[C@H](CCc1ccccc1)C(=O)O; Thr(3ξ) = CC(O)[C@H](N)C(=O)O

Experiments:
[1] = target: T1, somatostatin receptors sub-type 2 (Homo sapiens, UniProt P30874); experiment: Affinity for somatostatin receptors: inhibition of [125I-Tyr11]SRIF-14 binding to membranes of transfected CHO-K1 cells; conditions: competitive inhibition of [125I-Tyr11]SRIF-14 binding, 37° C.
T1 construct: expressed in transfected cells; membrane preparations
T1 sequence (P30874 whole entry): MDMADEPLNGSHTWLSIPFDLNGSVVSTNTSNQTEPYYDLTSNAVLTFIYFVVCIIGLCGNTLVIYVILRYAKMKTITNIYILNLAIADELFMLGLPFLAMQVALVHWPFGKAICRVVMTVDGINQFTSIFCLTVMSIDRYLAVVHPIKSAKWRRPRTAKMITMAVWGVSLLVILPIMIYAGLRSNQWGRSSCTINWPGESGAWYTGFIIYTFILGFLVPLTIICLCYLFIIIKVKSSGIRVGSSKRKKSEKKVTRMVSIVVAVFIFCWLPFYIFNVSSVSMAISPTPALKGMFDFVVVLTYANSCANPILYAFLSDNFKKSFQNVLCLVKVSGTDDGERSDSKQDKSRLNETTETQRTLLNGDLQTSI
Protocol: (§1) The affinity of the compounds of the invention for the somatostatin receptors is determined by measurement of the inhibition of the bond of [125I-Tyr11]SRIF-14 to membrane preparations of transfected CHO-K1 cells.
(§2) The CHO-K1 cells expressing in a stable fashion each of the sub-types of somatostatin receptors are collected with 0.5 mM of EDTA and centrifuged at 500 g for 5 minutes at 4° C. The pellet is re-suspended in phosphate buffer (PBS) and centrifuged at 500 g for 5 minutes at 4° C. The pellet is re-suspended in Tris 50 mM buffer at pH 7.4 and centrifuged at 500 g for 5 minutes at 4° C. The cells are lyzed by sonication and centrifuged at 39,000 g for 10 minutes. The pellet is re-suspended in Tris 50 mM buffer at pH 7.4, an aliquot is removed for assaying the proteins and the remainder is centrifuged at 50,000 g for 10 minutes. The membranes obtained in this last pellet are stored at −80° C.
(§3) Measurement of the competitive inhibition of the bond of [125I-Tyr11]SRIF-14 (Perkin Elmer) on each of the sub-types of somatostatin receptors is carried out in duplicate in 96-well polypropylene plates. The cell membranes (5 to 20 µg of proteins/well) are incubated with [125I-Tyr11]SRIF-14 (0.05 to 0.1 nM) for 50 to 90 minutes at 37° C. (conditions dependent on the sub-type of receptor) in a HEPES buffer medium 50 mM pH 7.4, comprising 0.2% bovine serum albumin (BSA), MgCl2 5 mM, Trasylol 200 KIU/mL, Bacitracin 0.02 mg/mL, phenylmethylsulphonyl fluoride 0.02 mg/mL.
(§4) The bound [125I-Tyr11]SRIF-14 is separated from the free [125I-Tyr11]SRIF-14 by filtration through GF/C glass fibre plates (Unifilter, Perkin Elmer) pre-impregnated with 0.1% polyethylenimine (P.E.I.), using a Filtermate 96 (Perkin Elmer). The filters are washed with Tris-HCl buffer 50 mM, pH 7.4 at 4° C. and the radioactivity present is determined using a counter (TopCount, Perkin Elmer).
(§5) The data are analyzed by computer-assisted non-linear regression using XLfit 4.2 (IDBS) software.

[2] = target: T2, somatostatin receptors sub-type 5 (Homo sapiens, UniProt P35346); experiment: as above; conditions: competitive inhibition of [125I-Tyr11]SRIF-14 binding, 37° C.
T2 construct: expressed in transfected cells; membrane preparations
T2 sequence (P35346 whole entry): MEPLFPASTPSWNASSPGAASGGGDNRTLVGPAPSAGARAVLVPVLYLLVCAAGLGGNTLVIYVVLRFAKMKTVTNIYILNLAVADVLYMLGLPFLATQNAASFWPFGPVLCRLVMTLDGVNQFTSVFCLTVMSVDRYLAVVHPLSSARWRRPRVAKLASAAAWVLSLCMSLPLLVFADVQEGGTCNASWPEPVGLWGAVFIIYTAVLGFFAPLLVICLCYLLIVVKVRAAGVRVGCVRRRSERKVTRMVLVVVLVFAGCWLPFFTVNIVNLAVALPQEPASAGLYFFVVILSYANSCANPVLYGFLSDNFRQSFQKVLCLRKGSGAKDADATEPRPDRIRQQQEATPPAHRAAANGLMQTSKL
Protocol: as §1, §2, §3, §4, §5

[3] = Self-assembly study: putting peptides in solution in water, macroscopic, ATR-FTIR, TEM and SAXS analysis; assay type: physicochemical; conditions: 3 to 15% by mass of peptide in water; form and diameter of the self-assembled structure, or soluble / insoluble
Description: The procedure used comprises three stages: putting the peptides in solution and macroscopic analysis; spectroscopic and microscopic analyses of the structures formed and by small-angle X-ray scattering (SAXS) analyses.
The first stage of the characterization of the derivatives is the production of a range of concentrations from 3 to 15% by mass of peptide in water. Gelling of the solution indicates the presence of self-assembled structures which can be nanotubes but can also be fibres or other self-organised structures.
The object of this stage is to verify the presence of self-assembled structures, to characterize their self-assembly and to visualize them by microscopy.
Infrared spectroscopy makes it possible to obtain information on the method of stacking the peptides in the self-assemblies. The amide band spectrum, reflecting the absorption spectra of the carbonyl functions of the peptide backbone, gives information on the type of hydrogen bond in which these groups are involved (H bonds leading to the formation of the […], a helix or also a loop or random conformation) and consequently on the secondary and tertiary structure of the peptides in solution and self-assembled. The attenuated total reflection technique (ATR-FTIR) uses a crystal on which the solid or liquid sample is deposited. The infrared light is guided through this crystal at an angle which allows it to be reflected several times inside the crystal, which increases the sensitivity of the technique. Due to the performance of this device, it is then possible perform measurements on relatively dilute solutions. The beam penetrates a few microns into the sample deposited on the crystal, which means that only the molecules/structures which are deposited on the surface of the crystal are analyzed. Moreover, this technique is non-destructive.
The assembled structures are then visualized by transmission electron microscopy (TEM). This very powerful technique, allowing magnifications greater than 500,000 times, is one of the few techniques capable of visualizing structures on the nanometric scale. The sample is subjected to an electron beam. The visualization of the transmitted beam is produced either by a photoluminescent screen, or by a CCD camera. The sample in the microscope being under vacuum, it is samples dried after staining with uranyl salts in order to increase contrast which are observed.
The peptide in solution is firstly deposited on a copper grid covered with a film of carbon. After deposition of the materiel, the excess liquid is eliminated. In the same way, the solution of colorant, in our case uranyl acetate, is deposited on the grid, the excess is eliminated and the grid is dried in the open air. It can then be introduced into the microscope.
The samples, liquids or gels, are introduced into a capillary column and subjected to a monochromatic flow of X-rays. The intensity diffused is measured as a function of the scattering angle with respect to the incident angle.
The diffusion patterns thus obtained must be the subject of a correlation with a close theoretical model of the structures present in the sample. In the case where the peptides have self-assembled in the form of hollow nanotubes, the modelling of the experimental data with the theoretical diffusion produced by infinitely long hollow columns makes it possible to determine with precision the diameter of the columns and to estimate their wall thickness (Valery et al. in Biophysical journal, 2004, 86(4), 2484-2501 and Proc. Natl. Acad. Sci., 2003, 100(18) 10258-10262). For polydisperse, nanotubular, fibrilar, micellar or lamellar self-assemblies, it is the correlation of the spectroscopic, microscopic and XR scattering data which makes it possible to estimate a size range for the objects observed.

Row | SMILES | Ki [1] | Ki [2] | Assembly [3]
1 | CC(C)[C@@H]1NC(=O)[C@H](CCCCN)NC(=O)[C@@H](c2ccccc2)NC(=O)[C@H](Cc2ccc(O)cc2)NC(=O)[C@@H](NC(=O)[C@H](N)Cc2ccc3ccccc3c2)CSSC[C@@H](C(=O)N[C@H](C(N)=O)C(C)O)NC1=O (stereo partly drawn) [Example 10, H-D-2-Nal^1-cyclo(Cys^2-Tyr^3-D-Phg^4-Lys^5-Val^6-Cys^7)-Thr^8-NH2.2 CH3COOH] | ≤ 700 nM | ≤ 5000 nM | self-assembled fibres
2 | CC(C)[C@@H]1NC(=O)[C@H](CCCCN)NC(=O)[C@@H](CCc2ccccc2)NC(=O)[C@H](Cc2ccc(O)cc2)NC(=O)[C@@H](NC(=O)[C@H](N)Cc2ccc3ccccc3c2)CSSC[C@@H](C(=O)N[C@H](C(N)=O)C(C)O)NC1=O (stereo partly drawn) [Example 11, H-D-2-Nal^1-cyclo(Cys^2-Tyr^3-D-Homophe^4-Lys^5-Val^6Cys^7)-Thr^8-NH2.2 CH3COOH] (H-[d2Nal]CY[d(hPhe)]KVC[Thr(3ξ)]-NH2; disulfide 2-7) | ≤ 50 nM | ≤ 1000 nM | soluble
3 | CC(C)[C@@H]1NC(=O)[C@H](CCCCN)NC(=O)[C@@H](Cc2ccc(Br)cc2)NC(=O)[C@H](Cc2ccc(O)cc2)NC(=O)[C@@H](NC(=O)[C@H](N)Cc2ccc3ccccc3c2)CSSC[C@@H](C(=O)N[C@H](C(N)=O)C(C)O)NC1=O (stereo partly drawn) [Example 12, H-D-2-Nal^1-cyclo(Cys^2-Tyr^3-p-Br-D-Phe^4-Lys^5-Val^6-Cys^7)-Thr^8-NH2.2 CH3COOH] (H-[d2Nal]CY[dPhe(4-Br)]KVC[Thr(3ξ)]-NH2; disulfide 2-7) | ≤ 5 nM | ≤ 100 nM | monodisperse peptide nanotubes and 17 nm monodisperse nanotube
4 | CC(C)[C@@H]1NC(=O)[C@H](CCCCN)NC(=O)[C@@H](Cc2ccc(O)cc2)NC(=O)[C@H](Cc2ccc(O)cc2)NC(=O)[C@@H](NC(=O)[C@H](N)Cc2ccc3ccccc3c2)CSSC[C@@H](C(=O)N[C@H](C(N)=O)C(C)O)NC1=O (stereo partly drawn) [Example 14, H-D-2-Nal^1-cyclo(Cys^2-Tyr^3-D-Tyr^4-Lys^5-Val^6-Cys^7)-Thr^8-NH2.2 CH3COOH] (H-[d2Nal]CY[dY]KVC[Thr(3ξ)]-NH2; disulfide 2-7) | ≤ 5 nM | ≤ 1000 nM | monodisperse peptide nanotubes and 18 nm monodisperse nanotube
5 | CC(C)[C@@H]1NC(=O)[C@H](CCCCN)NC(=O)[C@@H](Cc2cccc(F)c2)NC(=O)[C@H](Cc2ccc(O)cc2)NC(=O)[C@@H](NC(=O)[C@H](N)Cc2ccc3ccccc3c2)CSSC[C@@H](C(=O)N[C@H](C(N)=O)C(C)O)NC1=O (stereo partly drawn) [Example 15, H-D-2-Nal^1-cyclo(Cys^2-Tyr^3-m-F-D-Phe^4-Lys^5-Val^6-Cys^7)-Thr^8-NH2.2 CH3COOH] (H-[d2Nal]CY[dPhe(3-F)]KVC[Thr(3ξ)]-NH2; disulfide 2-7) | ≤ 5 nM | ≤ 100 nM | monodisperse peptide nanotubes and 15.6 nm monodisperse nanotube
6 | CC(C)[C@@H]1NC(=O)[C@H](CCCCN)NC(=O)[C@@H](Cc2ccccc2F)NC(=O)[C@H](Cc2ccc(O)cc2)NC(=O)[C@@H](NC(=O)[C@H](N)Cc2ccc3ccccc3c2)CSSC[C@@H](C(=O)N[C@H](C(N)=O)C(C)O)NC1=O (stereo partly drawn) [Example 16, H-D-2-Nal^1-cyclo(Cys^2-Tyr^3-o-F-D-Phe^4-Lys^5-Val^6-Cys^7)-Thr^8-NH2.2 CH3COOH] (H-[d2Nal]CY[dPhe(2-F)]KVC[Thr(3ξ)]-NH2; disulfide 2-7) | ≤ 5 nM | ≤ 1000 nM | monodisperse peptide nanotubes and 17 nm monodisperse nanotube
7 | CC(C)[C@@H]1NC(=O)[C@H](CCCCN)NC(=O)[C@@H](Cc2cc(F)cc(F)c2)NC(=O)[C@H](Cc2ccc(O)cc2)NC(=O)[C@@H](NC(=O)[C@H](N)Cc2ccc3ccccc3c2)CSSC[C@@H](C(=O)N[C@H](C(N)=O)C(C)O)NC1=O (stereo partly drawn) [Example 17, H-D-2-Nal^1-cyclo(Cys^2-Tyr^3-3,5-diF-D-Phe^4-Lys^5-Val^6-Cys^7)-Thr^8-NH2.2 CH3COOH] (H-[d2Nal]CY[dPhe(3,5-F2)]KVC[Thr(3ξ)]-NH2; disulfide 2-7) | ≤ 5 nM | ≤ 100 nM | monodisperse peptide nanotubes and 15.3 nm monodisperse nanotube
8 | CC(C)[C@@H]1NC(=O)[C@H](CCCCN)NC(=O)[C@@H](Cc2cccc(Br)c2)NC(=O)[C@H](Cc2ccc(O)cc2)NC(=O)[C@@H](NC(=O)[C@H](N)Cc2ccc3ccccc3c2)CSSC[C@@H](C(=O)N[C@H](C(N)=O)C(C)O)NC1=O (stereo partly drawn) [Example 18, H-D-2-Nal^1-cyclo(Cys^2-Tyr^3-m-Br-D-Phe^4-Lys^5-Val^6-Cys^7)-Thr^8-NH2.2 CH3COOH] (H-[d2Nal]CY[dPhe(3-Br)]KVC[Thr(3ξ)]-NH2; disulfide 2-7) | ≤ 5 nM | ≤ 100 nM | 18.4-18.8 nm monodisperse
9 | CC(C)[C@@H]1NC(=O)[C@H](CCCCN)NC(=O)[C@@H](Cc2ccc([N+](=O)[O-])cc2)NC(=O)[C@H](Cc2ccc(O)cc2)NC(=O)[C@@H](NC(=O)[C@H](N)Cc2ccc3ccccc3c2)CSSC[C@@H](C(=O)N[C@H](C(N)=O)C(C)O)NC1=O (stereo partly drawn) [Example 20, H-D-2-Nal^1-cyclo(Cys^2-Tyr^3-p-nitro-D-Phe^4-Lys^5-Val^6-Cys^7)-Thr^8-NH2.2 CH3COOH] (H-[d2Nal]CY[dPhe(4-NO2)]KVC[Thr(3ξ)]-NH2; disulfide 2-7) | ≤ 5 nM | ≤ 1000 nM | monodisperse peptide nanotubes and 17.6 nm monodisperse nanotube
10 | CC(C)[C@@H]1NC(=O)[C@H](CCCCN)NC(=O)[C@@H](Cc2ccc(-c3ccccc3)cc2)NC(=O)[C@H](Cc2ccc(O)cc2)NC(=O)[C@@H](NC(=O)[C@H](N)Cc2ccc3ccccc3c2)CSSC[C@@H](C(=O)N[C@H](C(N)=O)C(C)O)NC1=O (stereo partly drawn) [Example 21, H-D-2-Nal^1-cyclo(Cys^2-Tyr^3-p-Ph-D-Phe^4-Lys^5-Val^6-Cys^7)-Thr^8-NH2.2 CH3COOH] | ≤ 50 nM | ≤ 100 nM | insoluble
